Measurements: patent US12564193B2, “Isoxazoline-substituted benzamide derivative, and preparation method therefor and use thereof” (SHANDONG UNITED PESTICIDE INDUSTRY CO., LTD., priority 2020, dated 2026)
Where two headings read alike, the source gives them in different places.

Experiments:
Type in all cases: in vivo
[1] = tested on: Pieris rapae; assay: Insecticidal activity, spray on pre-infested radish plants: Pieris rapae; settings: 144 h, read-out: fatality rate on Pieris rapae
Procedure, shortened: (§1)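 First, 30-40 pests are transferred onto 12-15 day old radish plants on a cut leaf, and the soil is covered with sand. The compound solution is then sprayed and left to dry for 1 hour before a mesh cover is fitted. Insect mortality is read visually after 6 days at 25° C and 70% relative humidity.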

[2] = tested on: Spodoptera litura; assay: Insecticidal activity, spray on pre-infested radish plants: Spodoptera litura; settings: 144 h, read-out: fatality rate on Spodoptera litura
Procedure, shortened: (§2)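 Radish plants (12-15 days), 30-40 pests/plant via leaf cutting, soil sand-covered; spray compound in acetone/methanol/DMSO; dry 1 h; mesh cover; 25° C, 70% RH, 6 d; visual mortality; three replicates.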

[3] = tested on: Plutella xylostella; assay: Insecticidal activity, spray on pre-infested radish plants: Plutella xylostella; settings: Plutella xylostella, 144 h, read-out: fatality rate on Plutella xylostella
Procedure, shortened: as §2

[4] = tested on: Chilo suppressalis; assay: Insecticidal activity, spray on pre-infested radish plants: Chilo suppressalis; settings: Chilo suppressalis, 144 h, read-out: fatality rate on Chilo suppressalis
Procedure, shortened: as §2

[5] = tested on: Cnaphalocrocis medinalis; assay: Insecticidal activity, spray on pre-infested radish plants: Cnaphalocrocis medinalis; settings: 144 h, read-out: fatality rate on Cnaphalocrocis medinalis
Procedure, shortened: as §1

[6] = tested on: Frankliniella occidentalis; assay: Insecticidal activity, spray on pre-infested radish plants: Frankliniella occidentalis; settings: Frankliniella occidentalis, 144 h, read-out: fatality rate on Frankliniella occidentalis
Procedure, shortened: as §2

[7] = tested on: Mythimna separata; assay: Insecticidal activity, spray on pre-infested radish plants: Mythimna separata; settings: Mythimna separata, 144 h, read-out: fatality rate on Mythimna separata
Procedure, shortened: as §2

[8] = tested on: Tetranychus cinnabarinus; assay: Acaricidal activity, slide immersion of female adult mites: Tetranychus cinnabarinus; settings: read-out: fatality rate on Tetranychus cinnabarinus
Procedure, shortened: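 Female adult mites stuck dorsally on tape on slides (4 rows of 10), dipped 5 s in test solution, excess blotted, incubated 24 h. Mites with immobile feet on brush touch scored dead; fatality rate calculated.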

[9] = dose 1 ppm, immersion 5 seconds, checked after 24 hours
[10] = dose 10 ppm, immersion 5 seconds, checked after 24 hours
[11] = dose 25 ppm, immersion 5 seconds, checked after 24 hours

Cc1cc(C2=NOC(c3cc(Cl)c(F)c(Cl)c3)(C(F)(F)F)C2)ccc1C(=O)NCc1cnc(Cl)cc1C(F)(F)F (stereo not drawn) [Compound 5]
> 80%: pest or weed control at 0.1 ppm [1] | pest or weed control at 1 ppm [1] | pest or weed control at 10 ppm [1] | pest or weed control at 0.1 ppm [2] | pest or weed control at 1 ppm [2] | pest or weed control at 10 ppm [2] | pest or weed control at 0.1 ppm [3] | pest or weed control at 1 ppm [3] | pest or weed control at 10 ppm [3] | pest or weed control at 0.1 ppm [4] | pest or weed control at 1 ppm [4] | pest or weed control at 10 ppm [4] | pest or weed control at 0.1 ppm [5] | pest or weed control at 1 ppm [5] | pest or weed control at 10 ppm [5] | pest or weed control at 1 ppm [6] | pest or weed control at 10 ppm [6] | pest or weed control at 25 ppm [6] | pest or weed control at 0.1 ppm [7] | pest or weed control at 1 ppm [7] | pest or weed control at 10 ppm [7] | pest or weed control at 1 ppm ([8]; 24 h) | pest or weed control at 10 ppm ([8]; 24 h) | pest or weed control at 25 ppm ([8]; 24 h)

Cc1cc(C2=NOC(c3cc(F)c(F)c(F)c3)(C(F)(F)F)C2)ccc1C(=O)NCc1ncccc1Cl (stereo not drawn) [Compound 14]
> 80%: pest or weed control at 0.1 ppm ([1]; dose 0.1 ppm, spray, 6 days) | pest or weed control at 1 ppm ([1]; dose 1 ppm, spray, 6 days) | pest or weed control at 10 ppm ([1]; dose 10 ppm, spray, 6 days) | pest or weed control at 0.1 ppm ([2]; dose 0.1 ppm, spray, 6 days) | pest or weed control at 1 ppm ([2]; dose 1 ppm, spray, 6 days) | pest or weed control at 10 ppm ([2]; dose 10 ppm, spray, 6 days) | pest or weed control at 0.1 ppm ([3]; dose 0.1 ppm, spray, 6 days) | pest or weed control at 1 ppm ([3]; dose 1 ppm, spray, 6 days) | pest or weed control at 10 ppm ([3]; dose 10 ppm, spray, 6 days) | pest or weed control at 0.1 ppm ([4]; dose 0.1 ppm, spray, 6 days) | pest or weed control at 1 ppm ([4]; dose 1 ppm, spray, 6 days) | pest or weed control at 10 ppm ([4]; dose 10 ppm, spray, 6 days) | pest or weed control at 0.1 ppm ([5]; dose 0.1 ppm, spray, 6 days) | pest or weed control at 1 ppm ([5]; dose 1 ppm, spray, 6 days) | pest or weed control at 10 ppm ([5]; dose 10 ppm, spray, 6 days) | pest or weed control at 1 ppm ([6]; dose 1 ppm, spray, 6 days) | pest or weed control at 10 ppm ([6]; dose 10 ppm, spray, 6 days) | pest or weed control at 25 ppm ([6]; dose 25 ppm, spray, 6 days) | pest or weed control at 0.1 ppm ([7]; dose 0.1 ppm, spray, 6 days) | pest or weed control at 1 ppm ([7]; dose 1 ppm, spray, 6 days) | pest or weed control at 10 ppm ([7]; dose 10 ppm, spray, 6 days) | pest or weed control at 1 ppm [8, 9] | pest or weed control at 10 ppm [8, 10] | pest or weed control at 25 ppm [8, 11]

Cc1cc(C2=NOC(c3cc(F)c(F)c(F)c3)(C(F)(F)F)C2)ccc1C(=O)NCc1cnc(Cl)cc1Cl (stereo not drawn) [Compound 8]
> 80%: pest or weed control at 0.1 ppm ([1]; dose 0.1 ppm, spray, 6 days) | pest or weed control at 1 ppm ([1]; dose 1 ppm, spray, 6 days) | pest or weed control at 10 ppm ([1]; dose 10 ppm, spray, 6 days) | pest or weed control at 0.1 ppm ([2]; dose 0.1 ppm, spray, 6 days) | pest or weed control at 1 ppm ([2]; dose 1 ppm, spray, 6 days) | pest or weed control at 10 ppm ([2]; dose 10 ppm, spray, 6 days) | pest or weed control at 0.1 ppm ([3]; dose 0.1 ppm, spray, 6 days) | pest or weed control at 1 ppm ([3]; dose 1 ppm, spray, 6 days) | pest or weed control at 10 ppm ([3]; dose 10 ppm, spray, 6 days) | pest or weed control at 0.1 ppm ([4]; dose 0.1 ppm, spray, 6 days) | pest or weed control at 1 ppm ([4]; dose 1 ppm, spray, 6 days) | pest or weed control at 10 ppm ([4]; dose 10 ppm, spray, 6 days) | pest or weed control at 0.1 ppm ([5]; dose 0.1 ppm, spray, 6 days) | pest or weed control at 1 ppm ([5]; dose 1 ppm, spray, 6 days) | pest or weed control at 10 ppm ([5]; dose 10 ppm, spray, 6 days) | pest or weed control at 1 ppm ([6]; dose 1 ppm, spray, 6 days) | pest or weed control at 10 ppm ([6]; dose 10 ppm, spray, 6 days) | pest or weed control at 25 ppm ([6]; dose 25 ppm, spray, 6 days) | pest or weed control at 0.1 ppm ([7]; dose 0.1 ppm, spray, 6 days) | pest or weed control at 1 ppm ([7]; dose 1 ppm, spray, 6 days) | pest or weed control at 10 ppm ([7]; dose 10 ppm, spray, 6 days) | pest or weed control at 1 ppm [8, 9] | pest or weed control at 10 ppm [8, 10] | pest or weed control at 25 ppm [8, 11]
